Reference: publication PMC5591855, “d-Tubocurarine and Berbamine: Alkaloids That Are Permeant Blockers of the Hair Cell's Mechano-Electrical Transducer Channel and Protect from Aminoglycoside Toxicity” (Frontiers in Cellular Neuroscience, 2017)

System: T1, mechano-electrical transducer (MET) channel
T1 construct: native channel in CD-1 mouse cochlear outer hair cells (organotypic cultures)
Assay: whole-cell patch clamp of MET currents, extracellular block at -104 mV, […] Ca2+
Assay type: cell-based, Mus musculus
Details: read-out: Kd

Row | Compound | IC50 [nM]
1 | COc1cc2c3cc1Oc1cc(ccc1O)C[C@@H]1c4c(cc(OC)c(O)c4Oc4ccc(cc4)C[C@@H]3N(C)CC2)CC[N+]1(C)C [dTC, d-Tubocurarine] | 2200
2 | berbamine | 2800
